Experimental data published in US12171821B2, “Toxoplasma gondii vaccine” (priority 2018, dated 2024).
Values joined by “and” are separate entries in the source; they are usually repeats but may differ in a detail not shown here. Equal values may be shown once.

Legend:
asexual tachyzoite stage = conditions: prior work (Shamseddin et al., 2015); cited from earlier work
T. gondii = assay: Real-time PCR (SAG1) on gDNA of mouse fecal samples; assay type: in vivo, Toxoplasma gondii; conditions: gDNA of mouse fecal samples
Method: Delta-6-desaturase inhibition. SC 26196 (Cayman) was solubilized in DMSO and used at 20 μM in mouse organoid monolayers. For in vivo treatment, the inhibitor was solubilized in 0.5% m/v methylcellulose and the mice were given 50 mg/kg every 12 hours by oral gavage (He et al., 2012). 4-week old C57BL/6J female mice deleted in Z-DNA-binding protein (Pittman et al., 2016) were divided into four different groups: uninfected control, T. gondii-infected without fatty acid supplementation, T. gondii infected with linoleic acid supplementation, and T. gondii-infected with linoleic acid and SC 26196 inhibitor. Each mouse supplemented with linoleic acid received 10 μL of 99% linoleic acid oil (MilliporaSigma Cat #843483) suspended in 0.5% Methylcellulose per day by oral gavage. Mice were infected with 1000 brain cysts purified as described above by oral gavage and euthanized 7 days post infection. Sample size was at least 2 mice per group and the experiment was repeated 5 times. Alternatively, each mouse was infected with one mouse brain at least 2 months postinfection with at least 1000 cysts. Mice were treated with SC 26196 until day 5 postinfection. Feces were collected from days 5-14 and oocysts enumerated by microscopy.
Real-time PCR on fecal samples. […] A standard curve was generated using a dilution series of 101-105 parasites per well amplified using the SAG1 primer set described above, based on a gDNA sample with known parasite quantity. […]
[formula] […] The calculated copy numbers of each sample were normalized based on the ng of nucleic acid used as PCR template. […]
Statistical methods. […] The difference between the mean target gene copy numbers was analyzed by two-tailed unpaired t tests. […] The difference between the mean relative expression of each target gene was analyzed by two-tailed unpaired t tests.

[1] = system: T. gondii ME49 bradyzoites; assay: Merozoite markers GRA11B/BRP1, immunofluorescence, infected cat intestinal monolayers; assay type: cell-based, Toxoplasma gondii; conditions: 200 μM fatty acid, 5 days of infection
Method: FIGS. 6A-B. Quantification of merozoites in cat tissue culture. A) Cat intestinal organoids were disassociated by trypsin then grown as monolayers on glass slides. Slides were divided into three different groups: not supplemented with fatty acid, supplemented with 200 μM oleic acid or supplemented 200 μM linoleic acid. Monolayers were infected with T. gondii MEM bradyzoites purified from brains of chronic infected mice at a 1:10 MOI. Five days after infection, staining for GRA11B and BRP1 along with DAPI, allowed the percentage of vacuoles positive for GRA11B and BRP1out of the total vacuoles was determined. Total number of parasitophorous vacuoles were counted by positive DAPI staining and confirmed by morphology with DIC. At least 50 parasitophorous vacuoles were counted per replicate. Three biological replicates were counted and on average 35% of the total vacuoles were positive far both GRA11B and BRP1 in the linoleic acid supplemented monolayers. *p-value=0.0126 with N=3 by two-tailed unpaired t test. Straining for both BRP1 and GRA11B was used to ensure that merozoite stages were counted. […] BRP1 is a rhoptry protein that was initially found in bradyzoites; however, it is also expressed in merozoite. […]

CCCCC/C=C\C/C=C\CCCCCCCC(=O)O [linoleic acid]
cytotoxicity for the asexual tachyzoite stage (asexual tachyzoite stage): cytotoxic | SAG1 Ct mean (T. gondii): 35.84 | SAG1 raw Ct values (T. gondii; wells 1-3): 37.02 and 36.43 and 34.08 | parasites undergoing sexual development / merozoite stage markers GRA11B and BRP1 (staining) [1]: commonly seen only with linoleic acid supplementation
